In patent US11389501B1, “Method for treating eye inflammation using anti-inflammatory composition having bioactive compound” (TCI CO., LTD., priority 2021, dated 2022):

Columns and labels:
Format in all cases: cell-based
[1] = test system: VEGFA gene; experiment: qRT-PCR of VEGFA gene expression in blue light-irradiated human retinal pigment epithelial cells; settings: ARPE-19 cells, 0.0125 mg/ml, incubated 24 h, then blue light 15 min; control group = 100%, comparative group (blue light only) 109.47%
Source text: (§1) In the present embodiment, an RNA extraction kit, a reverse transcriptase, and a KAPA SYBR® FAST qPCR reagent kit were used in conjunction with a quantitative PCR instrument to determine the changes in expression level of the genes associated with eye protection and anti-inflammation in human retinal pigment epithelial cells treated with the peptide having the amino acid sequence of SEQ ID NO.: 1. Further, the efficacy of the bioactive compound obtained from the cowhide peptides of the present disclosure in resisting blue light and preventing inflammatory reactions was confirmed.
(§2) 1. Cell strain: Human retinal pigment epithelial cell ARPE-19 (purchased from ATCC, product number CRL-2302). […]
(§3) The cell membranes of each group of human retinal pigment epithelial cells (i.e., the control group, the comparative group, and the experimental group) resulted from the cell treatment stage were broken with cell lysates. […] Then the cDNA of each group was subjected to a quantitative real-time reverse transcription polymerase chain reaction (qRT-PCR) using the ABI StepOnePlus™ Real-time PCR system (Thermo Fisher Scientific), KAPA SYBR FAST (Sigma, USA, product number 38220000000) and the primers listed in Table 3 (SEQ 1D NO.: 2 to SEQ ID NO.: 9) to assess the expression of VEGFA gene. […] Gene quantification was performed using a 2^−ΔCt method. […]

[2] = test system: IL-1β gene; experiment: qRT-PCR of IL-1β gene expression in blue light-irradiated human retinal pigment epithelial cells; settings: ARPE-19 cells, 0.0125 mg/ml, incubated 24 h, then blue light 15 min; control group = 100%, comparative group (blue light only) 109.21%
Source text: as §1, §2, §3

[3] = test system: IL-8 gene; experiment: qRT-PCR of IL-8 gene expression in blue light-irradiated human retinal pigment epithelial cells; settings: ARPE-19 cells, 0.0125 mg/ml, incubated 24 h, then blue light 15 min; control group = 100%, comparative group (blue light only) 121.77%
Source text: as §1, §2, §3

Structure (SMILES): CC(C)C[C@H](NC(=O)[C@H](CO)NC(=O)[C@@H](NC(=O)[C@@H]1CCCN1C(=O)[C@H](CC(C)C)NC(=O)CNC(=O)[C@H](CO)NC(=O)[C@@H]1CCCN1C(=O)[C@H](CC(C)C)NC(=O)[C@H](CCCCN)NC(=O)C(N)C(C)O)C(C)C)C(=O)O (stereo partly drawn) [cowhide peptide, TKLPSGLPVSL]
- expression of VEGFA gene relative to the control group [1]: 84.07%
- expression of IL-1β gene relative to the control group [2]: 66.36%
- expression of IL-8 gene relative to the control group [3]: 88.29%
